Assay results: ChEMBL document CHEMBL1201862, “PubChem BioAssay data set” (2004)
Active and inactive are the calls of the source. For most assays here, no stated cut-off is given here; in the data, actives have a measured EC50 and inactives only a lower limit.

Key:
[1] = biological target: T1, Fatty acid synthase (Homo sapiens, UniProt P49327); test: FAS thioesterase domain inhibitors, dose response, biochemical, endpoint fluorescence intensity, uHTS hits (AID 624327); assay type: functional;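 further: fluorescence from hydrolysis of an O-methyl fluorescein acyl ester substrate by the enzyme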
[2] = biological target: T1, Fatty acid synthase; test: FAS thioesterase domain inhibitors, dose response, biochemical, kinetic fluorescence intensity (AID 624326); assay type: functional;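 further: rate of fluorescence rise from hydrolysis of a fluorogenic O-methyl fluorescein ester substrate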
[3] = system: BJ; test: cells; assay type: functional, cell-based; conditions: Homo sapiens
[4] = system: BJ; test: cytotoxicity toward BJ-TERT fibroblasts, dose response, cell-based, RAS-independent, luminescence (AID 1933); assay type: functional; conditions: Homo sapiens
[5] = system: BJ; test: cytotoxicity toward BJ-TERT-LT-ST fibroblasts, dose response, cell-based, RAS-independent, luminescence (AID 1935); assay type: functional; conditions: Homo sapiens;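 further: BJ fibroblasts immortalized with TERT plus LT and ST oncogenes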
[6] = cytotoxicity toward DRD oncogenic fibroblasts, dose response, cell-based, non-viral oncogenic, luminescence (AID 1934); assay type: functional; conditions: Homo sapiens
[7] = biological target: T2, Heat shock factor protein 1 (Mus musculus, UniProt P38532); test: HSF1 potentiators in luciferase reporter cells, confirmation, cell-based, NIH3T3, luminescence, dose retest (AID 435004); assay type: functional;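 further: stress induced by proteasome inhibitor MG132 added 30 min after compound; luciferase reporter driven by HSF1 response element in NIH3T3 cells; actives raise luminescence as potentiators of the MG132 stress response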
T2 sequence (P38532 whole entry): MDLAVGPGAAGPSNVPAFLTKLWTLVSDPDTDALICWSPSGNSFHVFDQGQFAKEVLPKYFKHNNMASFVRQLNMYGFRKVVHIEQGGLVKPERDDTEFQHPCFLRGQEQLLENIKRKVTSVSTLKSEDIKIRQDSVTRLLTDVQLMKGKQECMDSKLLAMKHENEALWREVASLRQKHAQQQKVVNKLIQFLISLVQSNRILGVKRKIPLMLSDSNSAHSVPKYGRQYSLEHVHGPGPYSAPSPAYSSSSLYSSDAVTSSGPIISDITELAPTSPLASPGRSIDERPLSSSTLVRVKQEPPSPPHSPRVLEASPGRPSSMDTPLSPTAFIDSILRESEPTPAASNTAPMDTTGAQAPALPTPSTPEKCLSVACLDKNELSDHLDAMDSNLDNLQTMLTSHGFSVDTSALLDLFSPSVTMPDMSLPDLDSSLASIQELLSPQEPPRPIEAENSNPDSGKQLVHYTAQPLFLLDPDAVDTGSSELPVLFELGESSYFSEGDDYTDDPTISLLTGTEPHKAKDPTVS

[8] = biological target: T3, Cytochrome P450 1A2 (Homo sapiens, UniProt P05177);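 further: PubChem cytochrome P450 panel assay, CYP1A2 panel member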
T3 sequence (P05177 whole entry): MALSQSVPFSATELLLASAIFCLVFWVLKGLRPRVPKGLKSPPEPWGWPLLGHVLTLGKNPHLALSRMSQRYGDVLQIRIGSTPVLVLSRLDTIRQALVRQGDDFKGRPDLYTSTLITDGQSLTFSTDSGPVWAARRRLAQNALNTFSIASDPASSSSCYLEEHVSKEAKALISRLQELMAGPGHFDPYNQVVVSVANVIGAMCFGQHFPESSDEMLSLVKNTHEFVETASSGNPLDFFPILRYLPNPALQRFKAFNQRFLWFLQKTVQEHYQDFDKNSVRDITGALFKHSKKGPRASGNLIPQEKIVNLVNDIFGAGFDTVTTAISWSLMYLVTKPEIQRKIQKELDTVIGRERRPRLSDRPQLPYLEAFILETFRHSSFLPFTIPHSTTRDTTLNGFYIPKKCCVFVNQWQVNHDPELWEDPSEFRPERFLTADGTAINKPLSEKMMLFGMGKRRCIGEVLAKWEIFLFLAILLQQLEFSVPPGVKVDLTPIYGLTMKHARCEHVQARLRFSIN

[9] = growth suppression of beta-catenin-knockout colon cells, dose response, cell-based, HCT116, human colon tumor (AID 1045); assay type: functional;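 further: HCT116 colon tumor cells with beta catenin knocked out; cells exposed to compound for 60 hours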
[10] = growth suppression of PTEN-null colon cells, dose response, cell-based, HCT116 PTEN knockout (AID 1047); assay type: functional;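 further: HCT116 colon tumor cells with PTEN knocked out; cells exposed to compound for 60 hours before readout; potency for loss of cell viability measured by luminescence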
[11] = biological target: T4, Replicative DNA helicase DnaB (Mycobacterium tuberculosis, UniProt P9WMR3); test: DnaB intein splicing inhibitors, dose response, biochemical, cell-free fluorescence (AID 449749); assay type: functional
T4 sequence (P9WMR3 whole entry): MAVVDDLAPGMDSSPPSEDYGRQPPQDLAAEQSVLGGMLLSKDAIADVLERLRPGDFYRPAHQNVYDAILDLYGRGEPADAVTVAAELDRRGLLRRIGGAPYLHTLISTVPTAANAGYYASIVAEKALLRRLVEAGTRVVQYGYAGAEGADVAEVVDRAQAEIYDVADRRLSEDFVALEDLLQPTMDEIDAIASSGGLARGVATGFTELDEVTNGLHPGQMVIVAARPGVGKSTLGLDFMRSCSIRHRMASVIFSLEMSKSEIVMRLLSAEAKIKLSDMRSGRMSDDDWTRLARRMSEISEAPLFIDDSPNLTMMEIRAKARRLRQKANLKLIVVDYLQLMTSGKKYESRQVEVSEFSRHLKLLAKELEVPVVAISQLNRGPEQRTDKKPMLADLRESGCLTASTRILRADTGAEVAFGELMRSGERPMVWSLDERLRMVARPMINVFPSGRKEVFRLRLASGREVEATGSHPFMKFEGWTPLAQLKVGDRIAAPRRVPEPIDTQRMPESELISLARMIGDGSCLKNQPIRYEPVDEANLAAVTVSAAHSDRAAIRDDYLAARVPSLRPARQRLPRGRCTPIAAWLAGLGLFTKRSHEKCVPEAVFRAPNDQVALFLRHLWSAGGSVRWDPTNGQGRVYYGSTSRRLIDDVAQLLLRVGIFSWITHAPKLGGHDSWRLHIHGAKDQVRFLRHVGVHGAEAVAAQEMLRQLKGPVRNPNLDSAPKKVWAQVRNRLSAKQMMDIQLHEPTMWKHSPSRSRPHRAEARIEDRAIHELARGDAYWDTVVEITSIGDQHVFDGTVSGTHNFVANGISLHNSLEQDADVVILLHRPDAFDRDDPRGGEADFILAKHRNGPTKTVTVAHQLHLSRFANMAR

[12] = HEp-2 cell cytotoxicity, dose response, cytotoxicity control for RSV inhibitor project, HTS (AID 2410); assay type: functional; conditions: human respiratory syncytial virus
[13] = biological target: T5, Protein RecA (Mycobacterium tuberculosis, UniProt P9WHJ3); test: Fluorescence Cell-Free Homogeneous Dose Retest to Identify Inhibitors of RecA-Intein Splicing Activity. [Related pubchem assays (depositor defined):AID2097, AID2223, AID489010, AID492950]; assay type: functional
T5 sequence (P9WHJ3 whole entry): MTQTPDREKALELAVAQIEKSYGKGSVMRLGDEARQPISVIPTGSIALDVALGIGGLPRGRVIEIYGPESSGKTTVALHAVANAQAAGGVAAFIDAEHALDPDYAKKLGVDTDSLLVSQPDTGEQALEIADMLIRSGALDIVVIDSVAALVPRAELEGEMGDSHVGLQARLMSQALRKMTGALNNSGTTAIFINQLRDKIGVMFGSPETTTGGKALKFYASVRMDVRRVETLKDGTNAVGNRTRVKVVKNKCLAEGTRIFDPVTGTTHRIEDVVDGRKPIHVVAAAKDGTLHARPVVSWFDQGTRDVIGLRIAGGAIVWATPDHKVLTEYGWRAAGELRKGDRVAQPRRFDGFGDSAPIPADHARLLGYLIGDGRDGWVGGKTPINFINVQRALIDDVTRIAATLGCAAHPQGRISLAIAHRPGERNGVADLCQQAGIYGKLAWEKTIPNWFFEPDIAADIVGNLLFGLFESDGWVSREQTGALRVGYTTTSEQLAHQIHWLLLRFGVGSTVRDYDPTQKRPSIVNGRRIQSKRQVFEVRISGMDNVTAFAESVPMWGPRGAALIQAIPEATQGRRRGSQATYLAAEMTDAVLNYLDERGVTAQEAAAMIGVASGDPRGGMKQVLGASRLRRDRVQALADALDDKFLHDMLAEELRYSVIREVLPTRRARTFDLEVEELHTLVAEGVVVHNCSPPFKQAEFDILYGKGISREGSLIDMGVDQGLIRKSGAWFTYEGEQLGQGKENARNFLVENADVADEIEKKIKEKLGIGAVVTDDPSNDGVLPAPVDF

[14] = Luminescence Cell-Based Dose Response HTS to Identify Activators of Luciferase Translation or Activity in H4 […] Cells. [Related pubchem assays: 1829 (Project Summary), 1814 (Primary HTS)]; assay type: functional
[15] = system: H4; test: Luminescence Cell-Based Dose Response HTS to Identify Activators of 5'UTR Stem-Loop Driven Prion Protein mRNA Translation in H4 Neuroglioblastoma Cells. [Related pubchem assays: 1829 (Project Summary), 1814 (Primary HTS)]; assay type: functional; conditions: Homo sapiens

T1 sequence (P49327 whole entry, the tested form may be a part): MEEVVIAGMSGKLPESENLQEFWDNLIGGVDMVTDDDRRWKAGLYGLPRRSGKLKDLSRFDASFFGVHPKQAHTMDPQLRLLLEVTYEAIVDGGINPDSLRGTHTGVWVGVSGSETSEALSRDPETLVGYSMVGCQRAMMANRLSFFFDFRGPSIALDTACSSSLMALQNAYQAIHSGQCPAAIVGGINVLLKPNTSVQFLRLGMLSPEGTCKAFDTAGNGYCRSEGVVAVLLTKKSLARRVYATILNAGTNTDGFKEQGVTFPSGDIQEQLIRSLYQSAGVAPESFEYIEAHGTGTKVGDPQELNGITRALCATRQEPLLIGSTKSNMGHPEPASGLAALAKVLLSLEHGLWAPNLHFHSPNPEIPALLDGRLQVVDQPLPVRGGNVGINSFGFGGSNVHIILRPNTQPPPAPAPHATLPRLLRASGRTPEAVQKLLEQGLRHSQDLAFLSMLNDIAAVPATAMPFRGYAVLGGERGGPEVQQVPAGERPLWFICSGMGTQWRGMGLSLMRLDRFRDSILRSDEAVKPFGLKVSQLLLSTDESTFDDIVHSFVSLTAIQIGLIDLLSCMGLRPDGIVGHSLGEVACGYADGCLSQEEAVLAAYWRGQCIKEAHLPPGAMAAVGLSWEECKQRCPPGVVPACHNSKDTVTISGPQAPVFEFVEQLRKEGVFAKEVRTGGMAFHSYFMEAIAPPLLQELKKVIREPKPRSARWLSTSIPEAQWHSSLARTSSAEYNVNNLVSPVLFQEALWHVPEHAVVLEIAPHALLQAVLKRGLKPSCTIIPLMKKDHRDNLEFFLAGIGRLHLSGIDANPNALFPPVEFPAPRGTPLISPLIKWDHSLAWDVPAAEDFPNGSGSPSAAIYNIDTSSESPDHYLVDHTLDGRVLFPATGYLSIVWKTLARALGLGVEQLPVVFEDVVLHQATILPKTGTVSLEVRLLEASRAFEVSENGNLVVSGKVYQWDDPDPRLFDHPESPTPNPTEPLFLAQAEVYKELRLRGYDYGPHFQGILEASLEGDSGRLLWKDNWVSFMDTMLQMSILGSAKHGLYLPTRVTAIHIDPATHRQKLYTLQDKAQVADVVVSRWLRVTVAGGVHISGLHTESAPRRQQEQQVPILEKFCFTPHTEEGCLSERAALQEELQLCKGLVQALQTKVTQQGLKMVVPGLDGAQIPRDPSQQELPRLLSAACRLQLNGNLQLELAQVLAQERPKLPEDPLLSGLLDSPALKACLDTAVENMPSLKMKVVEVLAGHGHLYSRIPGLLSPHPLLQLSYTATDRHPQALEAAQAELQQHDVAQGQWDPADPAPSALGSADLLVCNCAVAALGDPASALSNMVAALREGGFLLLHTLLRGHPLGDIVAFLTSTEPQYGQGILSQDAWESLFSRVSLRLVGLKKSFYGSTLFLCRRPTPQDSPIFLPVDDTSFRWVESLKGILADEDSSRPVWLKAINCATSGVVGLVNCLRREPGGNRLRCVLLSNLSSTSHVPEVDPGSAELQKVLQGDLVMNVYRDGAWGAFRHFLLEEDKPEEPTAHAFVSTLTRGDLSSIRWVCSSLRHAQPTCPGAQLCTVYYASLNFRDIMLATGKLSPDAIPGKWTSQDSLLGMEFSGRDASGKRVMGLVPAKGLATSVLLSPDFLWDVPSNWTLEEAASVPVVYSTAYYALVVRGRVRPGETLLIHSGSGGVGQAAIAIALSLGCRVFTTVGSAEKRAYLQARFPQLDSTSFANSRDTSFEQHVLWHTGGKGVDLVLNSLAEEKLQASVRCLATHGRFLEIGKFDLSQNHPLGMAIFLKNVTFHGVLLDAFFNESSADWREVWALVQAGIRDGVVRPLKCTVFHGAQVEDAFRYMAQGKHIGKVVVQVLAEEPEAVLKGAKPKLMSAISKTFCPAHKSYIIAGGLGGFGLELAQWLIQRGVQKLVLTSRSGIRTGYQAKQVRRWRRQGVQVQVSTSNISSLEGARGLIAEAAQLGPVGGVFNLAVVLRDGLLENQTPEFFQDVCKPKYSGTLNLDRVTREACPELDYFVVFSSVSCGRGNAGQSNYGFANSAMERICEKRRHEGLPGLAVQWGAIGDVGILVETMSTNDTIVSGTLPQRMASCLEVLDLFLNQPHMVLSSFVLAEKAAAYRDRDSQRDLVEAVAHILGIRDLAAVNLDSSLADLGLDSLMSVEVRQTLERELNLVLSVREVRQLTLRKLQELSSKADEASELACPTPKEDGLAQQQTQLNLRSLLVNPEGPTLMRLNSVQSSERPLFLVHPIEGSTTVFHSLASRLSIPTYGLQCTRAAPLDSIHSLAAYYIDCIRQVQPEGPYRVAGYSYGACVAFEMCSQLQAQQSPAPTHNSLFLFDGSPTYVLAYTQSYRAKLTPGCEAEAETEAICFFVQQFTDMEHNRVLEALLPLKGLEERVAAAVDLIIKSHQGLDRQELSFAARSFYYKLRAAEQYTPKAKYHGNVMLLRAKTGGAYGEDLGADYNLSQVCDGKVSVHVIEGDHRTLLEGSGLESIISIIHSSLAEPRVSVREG

SMILES: CC(C)CCNC(=O)C1CC(c2cccc([N+](=O)[O-])c2)=NO1 (stereo not drawn)
- IC50 [1]: 8.3 µM (active)
- IC50 [2]: 11 µM (active)

SMILES: CN1CCN(C(=O)/C=C/c2ccc([N+](=O)[O-])o2)CC1
- EC50 [3]: > 150 µM (not active)
- EC50 [4]: 44.6 µM (active)
- EC50 [5]: > 150 µM (not active)
- EC50 [6]: > 150 µM (not active)

SMILES: CCn1c(S)nnc1CC(C)C
- EC50 [7]: > 260 µM (inactive)
- AC50 [8]: 22.4 µM (inconclusive)

SMILES: COC(=O)CCC(=O)COc1ccc(OC)cc1C#N
- EC50 [7]: 105 µM (active)

SMILES: CCOC(=O)c1c(C)n(-c2ccc(C)cc2)c2c(CC(C)=O)c(Br)c(OC)c(O)c12
- EC50 [7]: > 260 µM (inactive)

SMILES: COc1ccc(N/C=C(\C=C\C#N)S(=O)(=O)c2ccccc2)cc1
- EC50 [7]: > 260 µM (inactive)

SMILES: N#C/C(=C\c1cccc(NC(=O)c2ccccc2Cl)c1)C(=O)NCCc1ccccc1
- EC50 [9]: 15.1 µM (active)
- EC50 [10]: 14.4 µM (active)
- AC50 [11]: 8.73 µM (active)
- CC50 [12]: 15.6 µM (active)
- EC50 [13]: 11.2 µM (active)

SMILES: CN(Cc1ccccc1)c1nc(N)c([N+](=O)[O-])c(NCc2ccccc2)n1
- EC50 [7]: > 260 µM (inactive)

SMILES: N#CC1(NC(=O)COC(=O)c2cc([N+](=O)[O-])ccc2N2CCCC2)CCCCC1
- IC50 [1]: 7.64 µM (active)
- IC50 [2]: 5.51 µM (active)

SMILES: CCOC(=O)C1CCN(C(=O)c2cc3cc4ccc(C)cc4nc3o2)CC1
- IC50 [1]: 11.3 µM (active)
- IC50 [2]: 12.2 µM (active)

SMILES: COc1cccc(Sc2ccccc2/C=N/NC(N)=O)c1
- EC50 [7]: > 260 µM (inactive)

SMILES: O=C(c1ccc(Cl)c(S(=O)(=O)NCc2ccco2)c1)N1CCN(c2ccccc2F)CC1
- EC50 [7]: > 260 µM (inactive)

SMILES: Cc1c(C(=O)NCc2ccoc2)oc2ccc3c(c12)C(=O)CC(C)(C)O3
- EC50 [14]: 33.7 µM (active)
- EC50 [15]: > 120 µM (not active)

SMILES: CC(=O)Nc1ccc(N/C=C/C(=O)C(C)(C)C)cc1
- EC50 [7]: > 260 µM (inactive)

SMILES: CCCc1nn(C)c2c1C(c1cccnc1)C(C#N)=C(N)O2 (stereo not drawn)
- AC50 [11]: 6.1 µM (active)
- EC50 [13]: 3.83 µM (active)
